Experimental data: the supplement of paper PMC4932681

Key:
MCF-7 Tam1 [1] = assay: drug sensitivity score (DSS) (DSS (dimensionless)); higher = more sensitive; extreme values may be limits of the assay; settings: 4-OH-tamoxifen in medium 1 µM; 72 h
Summary of the method: (§1)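 CellTiter-Glo viability was the readout, taken on a PHERAstar and normalised to vehicle-only and positive controls. It was measured after breast cancer cell lines and their resistant derivatives spent 72 h at 37 °C in 384-well plates containing library drugs at five concentrations spanning a 10 000-fold range, with 1 μM of the selecting drug in the medium of resistant lines. From logistic dose–response fits in the Breeze pipeline came drug sensitivity score, relative IC50 (curve midpoint) and top-dose inhibition.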

ZR-75-1 Tam2 [2] = assay: as above; settings: 4-OH-tamoxifen in medium 1 µM; 72 h
Summary of the method: as §1

MCF-7 [3] = assay: as above; settings: 72 h
Summary of the method: as §1

T-47D [4] = assay: as above; settings: 72 h
Summary of the method: as §1

ZR-75-1 Tam1 [5] = assay: as above; settings: 4-OH-tamoxifen in medium 1 µM; 72 h
Summary of the method: as §1

ZR-75-1 [6] = assay: as above; settings: 72 h
Summary of the method: as §1

T-47D Tam1 [7] = assay: as above; settings: 4-OH-tamoxifen in medium 1 µM; 72 h
Summary of the method: as §1

BT-474 [8] = assay: as above; settings: 72 h
Summary of the method: as §1

BT-474 Tam1 [9] = assay: as above; settings: 4-OH-tamoxifen in medium 1 µM; 72 h
Summary of the method: as §1

T-47D Tam2 [10] = assay: as above; settings: 4-OH-tamoxifen in medium 1 µM; 72 h
Summary of the method: as §1

BT-474 Tam2 [11] = assay: as above; settings: 4-OH-tamoxifen in medium 1 µM; 72 h
Summary of the method: as §1

MCF-7 Tam1 [12] = assay: relative IC50 (midpoint of fitted logistic curve, plateau may be below 50% inhibition; CellTiter-Glo viability); higher = less potent; settings: 4-OH-tamoxifen in medium 1 µM; 72 h
Summary of the method: as §1

ZR-75-1 Tam2 [13] = assay: as above; settings: 4-OH-tamoxifen in medium 1 µM; 72 h
Summary of the method: as §1

MCF-7 [14] = assay: as above; settings: 72 h
Summary of the method: as §1

T-47D [15] = assay: as above; settings: 72 h
Summary of the method: as §1

ZR-75-1 Tam1 [16] = assay: as above; settings: 4-OH-tamoxifen in medium 1 µM; 72 h
Summary of the method: as §1

ZR-75-1 [17] = assay: as above; settings: 72 h
Summary of the method: as §1

T-47D Tam1 [18] = assay: as above; settings: 4-OH-tamoxifen in medium 1 µM; 72 h
Summary of the method: as §1

BT-474 [19] = assay: as above; settings: 72 h
Summary of the method: as §1

BT-474 Tam1 [20] = assay: as above; settings: 4-OH-tamoxifen in medium 1 µM; 72 h
Summary of the method: as §1

T-47D Tam2 [21] = assay: as above; settings: 4-OH-tamoxifen in medium 1 µM; 72 h
Summary of the method: as §1

BT-474 Tam2 [22] = assay: as above; settings: 4-OH-tamoxifen in medium 1 µM; 72 h
Summary of the method: as §1

Compound | drug sensitivity score (MCF-7 Tam1 [1]) | drug sensitivity score (ZR-75-1 Tam2 [2]) | drug sensitivity score (MCF-7 [3]; 4-OH-tamoxifen in medium 0 µM) | drug sensitivity score (MCF-7 [3]; 4-OH-tamoxifen in medium 1 µM) | drug sensitivity score (T-47D [4]; 4-OH-tamoxifen in medium 0 µM) | drug sensitivity score (T-47D [4]; 4-OH-tamoxifen in medium 1 µM) | drug sensitivity score (ZR-75-1 Tam1 [5]) | drug sensitivity score (ZR-75-1 [6]; 4-OH-tamoxifen in medium 0 µM) | drug sensitivity score (ZR-75-1 [6]; 4-OH-tamoxifen in medium 1 µM) | drug sensitivity score (T-47D Tam1 [7]) | drug sensitivity score (BT-474 [8]; 4-OH-tamoxifen in medium 0 µM) | drug sensitivity score (BT-474 [8]; 4-OH-tamoxifen in medium 1 µM) | drug sensitivity score (BT-474 Tam1 [9]) | drug sensitivity score (T-47D Tam2 [10]) | drug sensitivity score (BT-474 Tam2 [11]) | relative IC50 (MCF-7 Tam1 [12]) [nM] | relative IC50 (ZR-75-1 Tam2 [13]) [nM] | relative IC50 (MCF-7 [14]; 4-OH-tamoxifen in medium 0 µM) [nM] | relative IC50 (MCF-7 [14]; 4-OH-tamoxifen in medium 1 µM) [nM] | relative IC50 (T-47D [15]; 4-OH-tamoxifen in medium 0 µM) [nM] | relative IC50 (T-47D [15]; 4-OH-tamoxifen in medium 1 µM) [nM] | relative IC50 (ZR-75-1 Tam1 [16]) [nM] | relative IC50 (ZR-75-1 [17]; 4-OH-tamoxifen in medium 0 µM) [nM] | relative IC50 (ZR-75-1 [17]; 4-OH-tamoxifen in medium 1 µM) [nM] | relative IC50 (T-47D Tam1 [18]) [nM] | relative IC50 (BT-474 [19]; 4-OH-tamoxifen in medium 0 µM) [nM] | relative IC50 (BT-474 [19]; 4-OH-tamoxifen in medium 1 µM) [nM] | relative IC50 (BT-474 Tam1 [20]) [nM] | relative IC50 (T-47D Tam2 [21]) [nM] | relative IC50 (BT-474 Tam2 [22]) [nM]
CC(C)n1nc(-c2ccc3oc(N)nc3c2)c2c(N)ncnc21 [INK128] | 7.07 | 17.5 | 18.9 | 13.6 | 15.4 | 8.51 | 15.1 | 16.1 | 13.6 | 16.9 | 5.72 | 9.54 | 13.2 | 8.98 | 7.32 | 11.4 | 6.49 | 7.36 | 7.62 | 11.6 | 11.9 | 4.81 | 6.13 | 6.56 | 2.91 | 27.5 | 47.1 | 20.9 | 7.49 | 30.2
COC(=O)C[C@](O)(CCCC(C)(C)O)C(=O)O[C@@H]1C(OC)=C[C@]23CCCN2CCc2cc4c(cc2[C@H]13)OCO4 [Omacetaxine (Homoharringtonine)] | 16.2 | 17.8 | 25.1 | 26.1 | 17.4 | 11 | 13.8 | 19 | 15.2 | 16.4 | 6.72 | 6.25 | 4.82 | 10.7 | 6.34 | 82.2 | 92.2 | 29 | 16.7 | 138 | 172 | 84.4 | 37.2 | 46.5 | 93.7 | – | 1890 | 2990 | 419 | 1780
CC(C)(C#N)c1cc(Cn2cncn2)cc(C(C)(C)C#N)c1 [Anastrozole] | 0 | 0 | 0 | 0 | 0 | 0 | 0 | 0 | 0 | 0 | 0 | 0 | 0 | 0 | 0 | > 10000 | > 10000 | > 10000 | > 10000 | > 10000 | > 10000 | > 10000 | > 10000 | > 10000 | > 10000 | > 10000 | > 10000 | > 10000 | > 10000 | > 10000
COc1cc2c(N3CCN(C(=O)Nc4ccc(OC(C)C)cc4)CC3)ncnc2cc1OCCCN1CCCCC1 [Tandutinib] | 0 | 0 | 0 | 0 | 0 | 0 | 0 | 0 | 0 | 0 | 0 | 0 | 0 | 0 | 0 | > 1000 | > 1000 | > 1000 | > 1000 | > 1000 | > 1000 | > 1000 | > 1000 | > 1000 | > 1000 | > 1000 | > 1000 | > 1000 | > 1000 | > 1000
CC1=C2C[C@H]3[C@@H](CC=C4C[C@@H](O)CC[C@@]43C)[C@@H]2CC[C@]12O[C@@H]1C[C@H](C)CN[C@H]1[C@H]2C [Cyclopamine] | 0 | 0 | 0 | 0 | 0 | 0 | 0 | 0 | 0 | 0 | 0 | 0 | 0 | 0 | 0 | > 10000 | > 10000 | > 10000 | > 10000 | > 10000 | > 10000 | > 10000 | > 10000 | > 10000 | > 10000 | > 10000 | > 10000 | > 10000 | > 10000 | > 10000
CC[C@@]1(O)C(=O)OCc2c1cc1n(c2=O)Cc2cc3ccccc3nc2-1 [Camptothecin] | 3 | 13.3 | 23 | 8.74 | 15.6 | 3.21 | 12.4 | 13.9 | 7.82 | 15.6 | 0 | 0 | 0 | 4.93 | 0 | 1350 | 59.8 | 32.6 | 649 | 44.2 | – | 49.7 | 38.4 | 95.6 | 32.6 | > 5000 | > 5000 | > 5000 | 302 | > 5000
Cc1ccc(F)c(NC(=O)Nc2ccc(-c3cccc4[nH]nc(N)c34)cc2)c1 [Linifanib (ABT-869)] | 0 | 0 | 0 | 0 | 0 | 0 | 0 | 0 | 0 | 0 | 0 | 0 | 0 | 0 | 0 | > 1000 | > 1000 | > 1000 | > 1000 | > 1000 | > 1000 | > 1000 | > 1000 | > 1000 | > 1000 | > 1000 | > 1000 | > 1000 | > 1000 | > 1000
C=CCNC1=C2C[C@@H](C)C[C@H](OC)[C@H](O)[C@@H](C)/C=C(\C)[C@H](OC(N)=O)[C@@H](OC)/C=C\C=C(/C)C(=O)NC(=CC1=O)C2=O [Tanespimycin  (17-AAG)] | 4.15 | 11.6 | 19.2 | 13.9 | 5.17 | 5.11 | 7.79 | 8.45 | 9.57 | 3.79 | 17.1 | 24 | 24 | 3.1 | 23.1 | 444 | 118 | 61.5 | 65.6 | 1550 | 939 | 284 | 74.5 | 141 | 1640 | 42.2 | 42.4 | 27.4 | 2180 | 38.6
C[C@H]1C[C@@H]2[C@H]([C@@H](O)C[C@@]3(C)[C@H]2CC[C@]3(O)C(=O)CO)[C@@]2(C)C=CC(=O)C=C12 [Methylprednisolone] | 0 | 0 | 0 | 0.455 | 0 | 0 | 0 | 0 | 0 | 0 | 0 | 0 | 0 | 0 | 0 | > 10000 | > 10000 | > 10000 | – | > 10000 | > 10000 | > 10000 | > 10000 | > 10000 | > 10000 | > 10000 | > 10000 | > 10000 | > 10000 | > 10000
CN1CCN(c2ccc3nc(-c4c(N)c5c(F)cccc5[nH]c4=O)[nH]c3c2)CC1 [Dovitinib (CHIR-258)] | 0 | 0 | 0 | 0 | 0 | 0 | 0 | 0 | 0 | 0 | 0 | 0 | 0 | 0 | 0 | > 10000 | > 10000 | > 10000 | > 10000 | > 10000 | > 10000 | > 10000 | > 10000 | > 10000 | > 10000 | > 10000 | > 10000 | > 10000 | > 10000 | > 10000
COc1cccc2cc(-c3nc([C@H]4CC[C@H](C(=O)O)CC4)n4ncnc(N)c34)[nH]c12 [OSI-027] | 2.71 | 12.5 | 4.23 | 4.31 | 11.9 | 5.99 | 9.81 | 11 | 11 | 15.8 | 5.02 | 6.48 | 7.62 | 8.2 | 5.03 | 713 | 198 | 1420 | 1160 | 246 | 543 | 219 | 263 | 132 | 134 | 333 | 697 | 203 | 131 | 338
CO[C@@H](C(=O)N1Cc2[nH]nc(NC(=O)c3ccc(N4CCN(C)CC4)cc3)c2C1)c1ccccc1 | 0 | 0 | 0 | 0 | 2.94 | 1.25 | 0 | 0 | 0 | 4.24 | 0 | 0 | 0 | 3.95 | 0 | > 10000 | > 10000 | > 10000 | > 10000 | – | – | > 10000 | > 10000 | > 10000 | 1030 | > 10000 | > 10000 | > 10000 | 833 | > 10000
Cn1cncc1[C@@](N)(c1ccc(Cl)cc1)c1ccc2c(c1)c(-c1cccc(Cl)c1)cc(=O)n2C [Tipifarnib  (Zarnestra)] | 3.82 | 6.76 | 11 | 12.6 | 3.25 | 0.489 | 7.03 | 6.34 | 7.52 | 6.21 | 4.27 | 6.99 | 7.78 | 4.67 | 7.37 | 1510 | 808 | 277 | 329 | – | – | 762 | 606 | 405 | 862 | 817 | 1650 | 1500 | 877 | 1410
C=CCn1c(=O)c2cnc(Nc3ccc(N4CCN(C)CC4)cc3)nc2n1-c1cccc(C(C)(C)O)n1 [MK-1775] | 0 | 0 | 7.89 | 5.16 | 2.12 | 1.93 | 0 | 0.795 | 0.472 | 4.22 | 2.85 | 4.97 | 3.33 | 4.14 | 2.77 | > 10000 | > 10000 | 369 | 553 | – | – | > 10000 | – | – | 1120 | – | 1040 | 1780 | 1080 | 857
